Assay results as given in paper PMC9577195, “Pharmacokinetics, bioavailability, and plasma protein binding study of glytrexate, a novel multitarget antifolate” (Frontiers in Pharmacology, 2022).

Legend:
[1] = Plasma protein binding rate by ultrafiltration, human plasma; format: in vitro ADME
Protocol: The glytrexate stock solution was diluted with 20% methanol (1% formic acid) to three mass concentrations of 50, 100, and 200 μg/ml for use. One hundred microliters of glytrexate solution of the corresponding concentration (3 duplicates each in parallel) was added to 900 μl of rat/human plasma, vortexed and mixed well to prepare plasma samples with plasma concentrations of 5, 10, and 20 μg/ml.
The plasma sample was placed in a constant temperature water bath at 37°C for a certain period to obtain an incubation solution. After the incubation solution was removed, it was placed on ice to maintain a low temperature, transferred to a filtrate tube (500 μl), and placed in a low-temperature refrigerated centrifuge at 4°C and 14,000 rpm for 20 min to obtain filtrate.
The test tube containing the drug concentration was incubated in a constant temperature water bath at 37°C. Each sample was obtained at 10 min, 30 min, 60 min, 120 min, 240 min, and 360 min and the drug concentration before and after ultrafiltration was determined. The plasma protein binding rate (%) = [(Cincubation solution-CUltrafiltrate)/Cincubation solution]×100%. GraphPad Prism 8 software was used to perform a one-way analysis of variance on the plasma protein binding rate of glytrexate between different mass concentrations in the same species.

[2] = Stability on incubation in artificial gastrointestinal fluids at 37°C; format: in vitro ADME; conditions: up to 3 h, 100 μg/ml
Protocol: Blank artificial gastric fluid: hydrochloric acid (2.75 mol/L, 16.4 ml) was diluted with 800 ml of water, adjusted to the pH 1.3 with 0.1 mol/L hydrochloric acid solution, diluted with water and diluted to 1000 ml.
Artificial gastric fluid: hydrochloric acid (2.75 mol/L, 16.4 ml) was diluted with 800 ml of water, and then 10 g of pepsin was added and shaken well until dissolved. The pH was adjusted to 1.3 with 0.1 mol/L hydrochloric acid solution, and then the artificial gastric fluid solution was diluted with water to 1000 ml.
Blank artificial intestinal fluid: potassium dihydrogen phosphate (6.8 g) was diluted with 500 ml of water, and shaken until dissolved. The pH was adjusted to 6.8 with 0.1 mol/L sodium hydroxide solution, and the solution was diluted with water to 1000 ml. […]
The test tube containing the drug concentration was incubated in a constant temperature water bath at 37°C. Each sample was obtained at 0, 0.5, 1.0, 1.5, 2.0, and 3.0 h, and the drug concentration was measured. […]
Fifty microliters of the above solution was accurately drawn at different incubation time points, and 155 μl of ice-cold methanol (1% formic acid) and 5 μl of IS solution were added. […] An appropriate amount of the supernatant was placed into the sample vial, and analyzed. […]
All samples were analyzed using the established LC‒MS/MS method, and MultiQuant 3.0 software was used for data processing. […]

[3] = Storage stability of glytrexate in rat plasma (short-term, autosampler, freeze-thaw, long-term); format: in vitro ADME
Protocol: For short-term and long-term stability, plasma samples (LQC and HQC) were kept at room temperature for 8 h and at −20°C for 14 consecutive days, respectively. To evaluate the freeze-thaw stability, plasma samples (n = 6) were investigated through three cycles from −20°C to 25°C, and the stability of the postpreparative samples after 8 h was evaluated in autosampler vials at 4°C. The results were evaluated by calculating the peak area ratio (glytrexate/IS) of the stability samples. If glytrexate is stable in rat plasma, the accuracy (RE) should be within ±15% and the precision (RSD) < 15%.

[4] = test system: KB tumor cells; parameters: method as in Xing et al., 2017; conditions: ref Xing et al., 2017, read-out: IC50, inhibitory action on KB tumor cells; cited from earlier work
[5] = 4°C for 8 h in rat plasma, spiked 5 ng/ml
[6] = 4°C for 8 h in rat plasma, spiked 1600 ng/ml
[7] = room temperature for 8 h in rat plasma, spiked 5 ng/ml
[8] = room temperature for 8 h in rat plasma, spiked 1600 ng/ml
[9] = three freeze‒thaw cycles in rat plasma, spiked 5 ng/ml
[10] = three freeze‒thaw cycles in rat plasma, spiked 1600 ng/ml
[11] = −20°C for 14 days in rat plasma, spiked 5 ng/ml
[12] = −20°C for 14 days in rat plasma, spiked 1600 ng/ml

`Nc1nc2[nH]c(CC(=O)NCC(=O)N[C@@H](CCC(=O)O)C(=O)O)cc2c(=O)[nH]1` [glytrexate, (S)-2-{2-[2-(2-amino-4-oxo-4,7-dihydro-3H-pyrrolo [2,3-d]pyrimidin-6-yl)-acetylamino]-acetylamino}-pentanedioic acid] showed a fraction unbound at 30 min, 5 μg/ml ([1]; 5 μg/ml, 37°C, 30 min incubation, ultrafiltration) of 0.758, a fraction unbound at 30 min, 10 μg/ml ([1]; 10 μg/ml, 37°C, 30 min incubation, ultrafiltration) of 0.754 and a fraction unbound at 30 min, 20 μg/ml ([1]; 20 μg/ml, 37°C, 30 min incubation, ultrafiltration) of 0.807. The fraction unbound ([1]; over 5, 10 and 20 μg/ml) was about 0.75, the “stability in artificial gastrointestinal fluid (in words)” value [2] was “did not remain stable” and the “% Deviation after storage” value [3, 5] was −11.50%. The “Mean measured concentration after storage” value (from here on “Mean measured concentration”) [3, 5] was 4.43 ± 0.21 ng/mL, the “% Deviation after storage” value [3, 6] was −2.11% and the “Mean measured concentration” value [3, 6] was 1566.21 ± 100.13 ng/mL. The “% Deviation after storage” value [3, 7] was −10.23%, the “Mean measured concentration” value [3, 7] was 4.49 ± 0.40 ng/mL and the “% Deviation after storage” value [3, 8] was −0.82%. The “Mean measured concentration” value [3, 8] was 1586.82 ± 103.89 ng/mL, the “% Deviation after storage” value [3, 9] was −2.27% and the “Mean measured concentration” value [3, 9] was 4.89 ± 0.68 ng/mL. For the same molecule, the “% Deviation after storage” value [3, 10] was −1.81%, the “Mean measured concentration” value [3, 10] was 1571.07 ± 105.54 ng/mL and the “% Deviation after storage” value [3, 11] was −6.40%. The “Mean measured concentration” value [3, 11] was 4.68 ± 0.40 ng/mL, the “% Deviation after storage” value [3, 12] was −2.01% and the “Mean measured concentration” value [3, 12] was 1567.82 ± 112.14 ng/mL. The IC50 [4] was 0.078 nM.
